In ChEMBL document CHEMBL1687782, “High-resolution crystal structure of the subclass B3 metallo-beta-lactamase BJP-1: rational basis for substrate specificity and interaction with sulfonamides” (Antimicrob Agents Chemother, 2010):

Experiments:
Bradyrhizobium japonicum [1] = assay: Activity at Bradyrhizobium japonicum metallo-beta-lactamase BJP-1
Bradyrhizobium japonicum [2] = assay: Ratio of Kcat to Km for Bradyrhizobium japonicum metallo-beta-lactamase BJP-1
[3] = system: Stenotrophomonas maltophilia; assay: Activity at Stenotrophomonas maltophilia 1SML metallo-beta-lactamase L1
[4] = system: Stenotrophomonas maltophilia; assay: Ratio of Kcat to Km for Stenotrophomonas maltophilia 1SML metallo-beta-lactamase L1
Fluoribacter gormanii [5] = assay: Activity at Fluoribacter gormanii 1K07 metallo-beta-lactamase FEZ-1
Fluoribacter gormanii [6] = assay: Ratio of Kcat to Km for Fluoribacter gormanii 1K07 metallo-beta-lactamase FEZ-1

| SMILES | Km (Bradyrhizobium japonicum [1]) | kcat/Km (Bradyrhizobium japonicum [2]) | Km [3] | kcat/Km [4] | Km (Fluoribacter gormanii [5]) | kcat/Km (Fluoribacter gormanii [6]) |
| --- | --- | --- | --- | --- | --- | --- |
| CCN1CCN(C(=O)N[C@@H](C(=O)N[C@@H]2C(=O)N3[C@@H]2SC(C)(C)[C@@H]3C(=O)O)c2ccccc2)C(=O)C1=O | 700 µM | 6.7 ×10⁴ /M/s | 20 µM | 7 ×10⁶ /M/s | 4200 µM | 1.2 ×10⁴ /M/s |
| CC1(C)S[C@@H]2[C@H](NC(=O)[C@H](C(=O)O)c3ccsc3)C(=O)N2[C@H]1C(=O)O |  |  | 140 µM | 2.7 ×10⁶ /M/s | > 5000 µM | 1.3 ×10⁴ /M/s |
| CC1(C)S[C@@H]2[C@H](NC(=O)[C@H](N)c3ccccc3)C(=O)N2[C@H]1C(=O)O | 670 µM | 1.9 ×10⁴ /M/s | 40 µM | 4.4 ×10⁶ /M/s | > 5000 µM | 1.1 ×10⁴ /M/s |
| C[C@@H](O)[C@H]1C(=O)N2C(C(=O)O)=C(SCCNC=N)C[C@H]12 | 260 µM | 6 ×10⁴ /M/s | 90 µM | 7.3 ×10⁵ /M/s | > 1000 µM | 2 ×10⁵ /M/s |
